Data set [1] deals with Polycomb protein EED (Homo sapiens, UniProt O75530). Description: Binding affinity to EED (unknown origin) assessed as dissociation constant by SPR analysis. Background: SPR reads the build-up and loss of mass on a sensor chip optically.
Data set [2] in a line: Intrinsic clearance in human liver microsomes. Type of data set: ADME, Microsome. The note with it: read-out: CLH. For orientation: Liver microsomes are vesicles of endoplasmic reticulum, rich in cytochrome P450 enzymes.
Data set [3] is described as follows: Lipophilicity, log D of the compound in Octanol/phosphate buffer at pH 7.4 by shake-flask method. It is filed as physicochemical.
Data set [4] is described as follows: Inhibition of PRC2 in human G-401 cells assessed as reduction in methylation of H3K27 trimethylation by HTRF assay. It is filed as cell-based. For orientation: Time-resolved FRET reads energy transfer from a long-lived donor to a nearby acceptor.
Data set [5] can be described thus: Solubility of compound in PBS at pH 7.4 measured for 24 hrs. It is filed as physicochemical.
A short description of data set [6]: Intrinsic clearance in rat hepatocytes assessed per million cells. It is filed as ADME, cell-based, Hepatocyte. The note with it: read-out: CLH.

The structures appear in SMILES notation. Converted amounts (≈) assume the structure as drawn.

Chain of Polycomb protein EED (O75530 whole entry): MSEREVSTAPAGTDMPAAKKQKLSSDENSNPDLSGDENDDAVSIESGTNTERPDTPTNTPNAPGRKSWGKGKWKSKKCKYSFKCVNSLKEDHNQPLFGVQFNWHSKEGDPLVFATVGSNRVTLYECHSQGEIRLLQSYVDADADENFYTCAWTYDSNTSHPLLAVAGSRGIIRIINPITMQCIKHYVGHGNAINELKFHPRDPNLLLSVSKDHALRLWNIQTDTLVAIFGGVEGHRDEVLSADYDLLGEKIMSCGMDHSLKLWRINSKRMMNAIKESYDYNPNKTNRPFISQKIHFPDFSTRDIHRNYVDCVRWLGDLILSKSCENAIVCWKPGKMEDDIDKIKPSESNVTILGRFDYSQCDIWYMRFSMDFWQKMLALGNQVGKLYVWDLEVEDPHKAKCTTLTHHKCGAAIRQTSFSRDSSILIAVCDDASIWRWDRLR

Broadly, the Kd is the constant that tells how readily two partners part at equilibrium. As a reminder, the logD is the decadic logarithm of the distribution of all forms, ionised or not, between an organic phase and buffer at a given pH. High values mean higher lipophilicity, low ones lower lipophilicity. One may read the IC50 as the concentration that inhibits the measured activity by half. As a reminder, the solubility is the dissolved amount per volume that the medium holds. Low values mean little dissolved substance, high ones much dissolved substance. As to `Cc1ncccc1-c1cnc(NCc2c(F)cc(F)c3c2CCO3)n2cnnc12`, the Kd in data set [1] was 1200 nM. In data set [2], the microsomal CLint was 9 µL/min/mg. In addition, the pH-dependent lipophilicity (logD) in data set [3] was 2.6. The IC50 in data set [4] was found to be 11 nM. The solubility at 24 h in data set [5] was found to be 4 µM (≈ 1.58 µg/mL). The hepatocyte CLint in data set [6] worked out at 9 µL/min/1e6 cells.

Consider `Cc1ncccc1-c1cnc(NCc2c(F)cc(Cl)c3c2CCO3)n2cnnc12`, for which the equilibrium dissociation constant (Kd) in data set [1] was found to be 2400 nM. Moreover, the microsomal CLint in data set [2] stood at 20 µL/min/mg. Also, the logD in data set [3] was found to be 3.2. In data set [4], the concentration for half-maximal inhibition (IC50) is 16 nM. Also, the solubility at 24 h in data set [5] turned out to be 0.2 µM (≈ 0.0822 µg/mL). The hepatocyte CLint in data set [6] worked out at 9 µL/min/1e6 cells.

On to `COc1cc(F)c(CNc2ncc(-c3cccnc3C)c3nncn23)c2c1OCC2`, for which the Kd in data set [1] came out at 305000 nM. Also, in data set [2], the microsomal CLint was 20 µL/min/mg. In data set [3], this molecule displayed a logD of 2.3. The IC50 in data set [4] worked out at 15500 nM. For the same molecule, the concentration in solution in data set [5] (solubility at 24 h) was 21 µM (≈ 8.53 µg/mL). Moreover, the hepatocyte CLint in data set [6] amounted to 4 µL/min/1e6 cells.

`Cc1ncccc1-c1cnc(NCc2c(F)cc(N)c3c2CCO3)n2cnnc12`: in data set [1], the Kd worked out at 500 nM. Further, in data set [2], the microsomal CLint came out at 13 µL/min/mg. Also, in data set [3], the logD was determined as 1.8. Besides, the IC50 in data set [4] was 50 nM. The hepatocyte CLint in data set [6] is 7 µL/min/1e6 cells.

Regarding `Cc1ncccc1-c1cnc(NCc2c(F)cc(C#N)c3c2CCO3)n2cnnc12`, the dissociation constant (Kd) in data set [1] was determined as 15000 nM. Also, in data set [2], the microsomal CLint was determined as 28 µL/min/mg. Moreover, the logD in data set [3] amounted to 2.2. The IC50 in data set [4] was 102 nM. The molecule further came in with a solubility at 24 h in data set [5] of 3 µM (≈ 1.2 µg/mL). The hepatocyte CLint in data set [6] is 10 µL/min/1e6 cells.

On to `Cc1ncccc1-c1cnc(NCc2c(F)cc(O)c3c2CCO3)n2cnnc12`, for which the microsomal CLint in data set [2] was found to be 9 µL/min/mg. The molecule further registered a logD in data set [3] of 1.8. Besides, in data set [4], the concentration for half-maximal inhibition (IC50) is 15 nM. This molecule returned a solubility at 24 h in data set [5] of 5 µM (≈ 1.96 µg/mL). Further, the hepatocyte CLint in data set [6] was found to be 50 µL/min/1e6 cells.

As to `Cc1ncccc1-c1cnc(NCc2c(F)ccc3c2CCO3)n2cnnc12`, in data set [1], the Kd is 400 nM. The microsomal CLint in data set [2] turned out to be 15 µL/min/mg. The molecule also returned a log distribution coefficient (logD) in data set [3] of 2.5. Further, the IC50 in data set [4] came to 5 nM. In data set [6], the hepatocyte CLint is 6 µL/min/1e6 cells.

Values taken from ChEMBL document CHEMBL4732253, “Free energy perturbation in the design of EED ligands as inhibitors of polycomb repressive complex 2 (PRC2) methyltransferase” (Bioorg Med Chem Lett, 2021).
